# What was measured:
# [1] = target: T1, Phosphatidylinositol 4,5-bisphosphate 3-kinase catalytic subunit delta isoform (Homo sapiens, UniProt O00329); assay: PI3Kdelta Scintillation Proximity Assay; settings: pH 6.7; 25 °C
# T1 sequence (O00329 whole entry): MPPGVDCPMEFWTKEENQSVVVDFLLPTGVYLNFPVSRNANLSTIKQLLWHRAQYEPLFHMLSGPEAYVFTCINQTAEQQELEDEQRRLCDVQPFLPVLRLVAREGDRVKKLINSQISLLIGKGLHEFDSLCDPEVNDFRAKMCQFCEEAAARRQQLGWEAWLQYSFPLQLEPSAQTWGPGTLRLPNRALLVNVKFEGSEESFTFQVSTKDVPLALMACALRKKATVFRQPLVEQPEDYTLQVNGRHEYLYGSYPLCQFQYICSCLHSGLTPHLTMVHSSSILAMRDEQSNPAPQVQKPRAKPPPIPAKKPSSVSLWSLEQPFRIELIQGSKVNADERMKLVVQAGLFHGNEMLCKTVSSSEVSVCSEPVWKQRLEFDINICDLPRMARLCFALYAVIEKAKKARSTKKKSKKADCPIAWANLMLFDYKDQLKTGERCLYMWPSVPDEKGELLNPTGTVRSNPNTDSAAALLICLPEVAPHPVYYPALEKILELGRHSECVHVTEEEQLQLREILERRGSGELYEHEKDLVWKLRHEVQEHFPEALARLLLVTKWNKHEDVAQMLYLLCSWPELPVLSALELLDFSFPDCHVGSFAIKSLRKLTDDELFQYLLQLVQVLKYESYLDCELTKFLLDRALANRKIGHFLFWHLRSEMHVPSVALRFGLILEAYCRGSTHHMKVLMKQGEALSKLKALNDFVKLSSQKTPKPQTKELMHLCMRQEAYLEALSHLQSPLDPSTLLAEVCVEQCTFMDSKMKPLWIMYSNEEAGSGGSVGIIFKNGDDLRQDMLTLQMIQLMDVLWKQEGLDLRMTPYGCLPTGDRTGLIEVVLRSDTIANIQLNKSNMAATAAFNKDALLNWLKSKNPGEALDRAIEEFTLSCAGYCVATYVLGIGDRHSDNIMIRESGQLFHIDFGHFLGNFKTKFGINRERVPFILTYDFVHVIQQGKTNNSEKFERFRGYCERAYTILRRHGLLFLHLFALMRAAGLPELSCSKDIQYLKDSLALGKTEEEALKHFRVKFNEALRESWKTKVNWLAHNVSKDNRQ
# Description: [γ-33P]ATP (10 mCi/mL) and Wheat Germ Agglutinin (WGA) YSi SPA Scintillation Beads was purchased from Perkin-Elmer (Waltham, Mass.). Lipid kinase substrate, D-myo-Phosphatidylinositol 4,5-bisphosphate (PtdIns(4,5)P2)D (+)-sn-1,2-di-O-octanoylglyceryl, 3-O-phospho linked (PIP2), CAS 204858-53-7, was purchased from Echelon Biosciences (Salt Lake City, Utah). PI3Kδ (p110δ/p85α) Recombinant Human Protein was purchased from Eurofins (St. Charles, Mo.). ATP, MgCl2, DTT, EDTA, MOPS and CHAPS were purchased from Sigma-Aldrich (St. Louis, Mo.).The kinase reaction was conducted in polystyrene 384-well Greiner Bio-one white plate from Thermo Fisher Scientific in a final volume of 25 μL. Inhibitors were first diluted serially in DMSO and added to the plate wells before the addition of other reaction components. The final concentration of DMSO in the assay was 2%. The PI3Kδ assay was carried out at room temperature in 20 mM MOPS, pH 6.7, 10 mM MgCl2, 5 mM DTT and CHAPS 0.03%. Reactions were initiated by the addition of ATP, the final reaction mixture consisted of 20 μM PIP2, 2 μM ATP, 0.5 μCi [γ-33P] ATP, 3.4 nM PI3Kδ. Reactions were incubated for 120 min and terminated by the addition of 40 μL SPA beads suspended in quench buffer: 163 mM potassium phosphate pH 7.8, 20% glycerol, 25 mM EDTA. The final concentration of SPA beads is 1.0 mg/mL. After the plate sealing, plates were shaken overnight at room temperature and centrifuged at 1500 rpm for 10 min, the radioactivity of the product was determined by scintillation counting on Topcount (Perkin-Elmer). IC50 determination was performed by fitting the curve of percent of the solvent control activity versus the log of the inhibitor concentration using the GraphPad Prism 6.0 software.
# [2] = target: Phosphatidylinositol 4,5-bisphosphate 3-kinase catalytic subunit gamma isoform (Homo sapiens, UniProt P48736); assay: PI3K-gamma Scintillation Proximity Assay; settings: pH 6.7; 25 °C
# Sequence of Phosphatidylinositol 4,5-bisphosphate 3-kinase catalytic subunit gamma isoform (P48736 whole entry, canonical isoform): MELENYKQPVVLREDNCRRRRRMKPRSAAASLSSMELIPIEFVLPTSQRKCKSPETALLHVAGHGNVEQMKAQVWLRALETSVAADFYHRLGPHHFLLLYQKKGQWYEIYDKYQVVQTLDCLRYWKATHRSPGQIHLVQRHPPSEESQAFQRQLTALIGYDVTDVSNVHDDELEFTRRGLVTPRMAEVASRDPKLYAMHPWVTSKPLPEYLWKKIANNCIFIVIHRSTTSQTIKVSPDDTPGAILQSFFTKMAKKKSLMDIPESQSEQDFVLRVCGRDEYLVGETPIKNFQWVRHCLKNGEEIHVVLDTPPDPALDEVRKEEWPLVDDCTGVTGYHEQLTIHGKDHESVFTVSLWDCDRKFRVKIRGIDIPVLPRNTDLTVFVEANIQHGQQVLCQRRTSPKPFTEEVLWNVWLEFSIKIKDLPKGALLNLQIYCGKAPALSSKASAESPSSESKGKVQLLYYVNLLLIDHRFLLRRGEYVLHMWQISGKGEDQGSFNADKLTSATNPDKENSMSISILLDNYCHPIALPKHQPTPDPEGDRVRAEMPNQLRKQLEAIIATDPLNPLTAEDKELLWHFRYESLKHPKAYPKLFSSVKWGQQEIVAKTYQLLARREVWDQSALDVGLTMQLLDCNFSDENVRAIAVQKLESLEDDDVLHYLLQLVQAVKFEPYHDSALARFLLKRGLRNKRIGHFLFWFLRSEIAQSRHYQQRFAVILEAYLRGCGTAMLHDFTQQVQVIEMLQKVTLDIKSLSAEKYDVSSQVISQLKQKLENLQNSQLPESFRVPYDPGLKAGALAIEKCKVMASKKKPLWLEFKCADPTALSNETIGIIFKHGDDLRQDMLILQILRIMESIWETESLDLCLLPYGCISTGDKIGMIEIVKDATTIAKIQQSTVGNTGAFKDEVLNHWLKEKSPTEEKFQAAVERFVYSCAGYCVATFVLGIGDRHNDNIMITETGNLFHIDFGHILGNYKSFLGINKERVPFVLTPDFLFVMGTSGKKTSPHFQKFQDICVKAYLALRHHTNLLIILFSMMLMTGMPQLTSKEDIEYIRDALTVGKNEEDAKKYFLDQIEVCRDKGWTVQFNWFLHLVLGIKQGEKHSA
# Description: γ-33P]ATP (10 mCi/mL) and Wheat Germ Agglutinin (WGA) YSi SPA Scintillation Beads was purchased from Perkin-Elmer (Waltham, Mass.). Lipid kinase substrate, D-myo-Phosphatidylinositol 4,5-bisphosphate (PtdIns(4,5)P2)D (+)-sn-1,2-di-O-octanoylglyceryl, 3-O-phospho linked (PIP2), CAS 204858-53-7, was purchased from Echelon Biosciences (Salt Lake City, Utah). PI3Kγ (p110γ) Recombinant Human Protein was purchased from Life technology (Grand Island, N.Y.). ATP, MgCl2, DTT, EDTA, MOPS and CHAPS were purchased from Sigma-Aldrich (St. Louis, Mo.).The kinase reaction was conducted in polystyrene 384-well Greiner Bio-one white plate from Thermo Fisher Scientific in a final volume of 25 μL. Inhibitors were first diluted serially in DMSO and added to the plate wells before the addition of other reaction components. The final concentration of DMSO in the assay was 2%. The PI3Kγ assay was carried out at room temperature in 20 mM MOPS, pH 6.7, 10 mM MgCl2, 5 mM DTT and CHAPS 0.03%. Reactions were initiated by the addition of ATP, the final reaction mixture consisted of 20 μM PIP2, 2 μM ATP, 0.5 μCi [γ-33P] ATP, 13 nM PI3Kγ. […] After the plate sealing, plates were shaken overnight at room temperature and centrifuged at 1500 rpm for 10 min, the radioactivity of the product was determined by scintillation counting on Topcount (Perkin-Elmer). […]
IC50 [2] [µM],SMILES,IC50 [1] [µM]
–,"COc1cncc(-c2ccc3nc(-c4cc5ccccc5[nH]4)oc3c2)c1 [US10022387, Example 4]",< 5
< 1,"CC(=O)Nc1cc(-c2ccc3nc(-c4nc5ccccc5[nH]4)oc3c2)cnc1F [US10022387, Example 33]",> 5
–,"CCS(=O)(=O)Nc1cncc(-c2ccc3nc(-c4nc5ccccc5[nH]4)oc3c2)c1 [US10022387, Example 73]",< 5
